In general, IC50 refers to the concentration needed to halve the response being measured.

SMILES strings stand for the structures.

For the first assay, the target named is rat JNK3 (Rattus norvegicus, UniProt P49187). Put plainly: JNK3 in vitro assay (33P incorporation into c-Jun, SPA). It counts as biochemical. The note with it: in vitro potency on rat JNK3; read-out: JUNK3 IC50. As to the method: The compounds of the present invention are inhibitors of JNKs. The phosphorylation of c-jun by JNK2 or JNK3 may be determined by monitoring the incorporation of ^33P into c-jun following the protocol below. The inhibitory activity of the compounds according to formula I, towards c-jun phosphorylation through JNK, is determined by calculating phosphorylation activity in the presence or absence of compounds according to formula I.
Chain of rat JNK3 (P49187 whole entry): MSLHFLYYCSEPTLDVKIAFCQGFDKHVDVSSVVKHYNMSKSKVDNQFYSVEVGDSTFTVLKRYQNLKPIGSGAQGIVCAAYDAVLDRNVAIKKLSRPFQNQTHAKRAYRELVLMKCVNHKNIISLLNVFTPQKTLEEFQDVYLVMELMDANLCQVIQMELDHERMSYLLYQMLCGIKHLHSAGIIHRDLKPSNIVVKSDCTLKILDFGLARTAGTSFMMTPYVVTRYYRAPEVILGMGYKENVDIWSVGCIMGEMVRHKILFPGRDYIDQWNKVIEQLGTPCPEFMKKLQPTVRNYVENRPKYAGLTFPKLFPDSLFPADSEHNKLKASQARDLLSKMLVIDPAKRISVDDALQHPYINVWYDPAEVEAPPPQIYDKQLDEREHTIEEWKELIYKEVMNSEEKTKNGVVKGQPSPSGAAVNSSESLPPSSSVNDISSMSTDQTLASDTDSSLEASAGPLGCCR
JNK3 and/or -2 assays are performed in 96 well MIT plates: incubation of 0.5 μg of recombinant, pre-activated GST-JNK3 or GST-JNK2 with 1 μg of recombinant, biotinylated GST-c-Jun and 2 μM ^33γ-ATP (2 nCi/μl), in the presence or absence of compounds according to formula I and in a reaction volume of 50 μl containing 50 mM Tris-HCl, pH 8.0; 10 mM MgCl2; 1 mM Dithiothreitol, and 100 μM NaVO4. The incubation is performed for 120 min. at R.T and stopped upon addition of 200 μl of a solution containing 250 μg of Streptavidine-coated SPA beads (Amersham, Inc.)*, 5 mM EDTA, 0.1% Triton X-100 and 50 μM ATP, in phosphate saline buffer.
After incubation for 60 minutes at RT, beads are sedimented by centrifugation at 1500×g for 5 minutes, resuspended in 200 μl of PBS containing 5 mM EDTA, 0.1% Triton X-100 and 50 μM ATP and the radioactivity measured in a scintillation β counter, following sedimentation of the beads as described above.
For the molecule `Cc1cnc(NCCc2ccc(N(C)C)nc2)nc1/C(C#N)=C1/C=CC=CN1` [Example 4, 4-pyrimidineacetonitrile, 2-[[2-[6-(dimethylamino)-3-pyridinyl]ethyl]amino]-5-methyl-alpha-2(1H)-pyridinylidene-], the IC50 was found to be 480 nM.

Consider `Cc1cnc(NC2CCCCC2)nc1/C(C#N)=C1/C=CC=CN1` [Example 8, 4-pyrimidineacetonitrile, 2-(cyclohexylamino)-5-methyl-alpha-2-pyridinyl-], for which the IC50 was found to be 70 nM.

For `Cc1cnc(NCC2CCCCC2)nc1/C(C#N)=C1/C=CC=CN1` [Example 9, 4-pyrimidineacetonitrile, 2-[(cyclohexylmethyl)amino]-5-methyl-alpha-2 pyridinyl-], the IC50 stood at 486 nM.

As for `Cc1cnc(NC2CCC2)nc1/C(C#N)=C1/C=CC=CN1` [Example 11, 4-pyrimidineacetonitrile, 2-(cyclobutylamino)-5-methyl-alpha-2(1H)-pyridinylidene], the IC50 amounted to 106 nM.

Turning to `Cc1cnc(NC2CCN(C(=O)OC(C)(C)C)CC2)nc1/C(C#N)=C1/C=CC=CN1` [Example 12, 1-piperidinecarboxylic acid, 4-[[4-[(E)-cyano-2(1H)-pyridinylidenemethyl]-5-methyl-2-pyrimidinyl]amino]-, 1,1-dimethylethyl ester], the IC50 was 1140 nM.

As to `CCN1C=CC=C/C1=C(\C#N)c1nc(NC2CCCC2)ncc1C` [Example 14, 4-pyrimidineacetonitrile, 2-(cyclopentylamino)-alpha-(1-ethyl-2(1H)-pyridinylidene)-5-methyl], the IC50 amounted to 6200 nM.

As for `Cc1cnc(NC2CC2)nc1/C(C#N)=C1/C=CC=CN1` [Example 15, 4-pyrimidineacetonitrile, 2-(cyclopropylamino)-5-methyl-alpha-2-pyridinyl-], the IC50 came to 299 nM.

For the molecule `Cc1cnc(NC2CCN(Cc3ccccc3)CC2)nc1/C(C#N)=C1/C=CC=CN1` [Example 16, 4-pyrimidineacetonitrile, 5-methyl-2-[[1-(phenylmethyl)-4-piperidinyl]amino]-alpha-2(1H)-pyridinylidene-], the IC50 was found to be 665 nM.

For `Cc1cnc(NCC(C)C)nc1/C(C#N)=C1/C=CC=CN1` [Example 20, 4-pyrimidineacetonitrile, 5-methyl-2-[(2-methylpropyl)amino]-alpha-2(1H)-pyridinylidene-], the IC50 was found to be 210 nM.

With `Cc1cnc(NC(C)C)nc1/C(C#N)=C1/C=CC=CN1` [Example 21, 4-pyrimidineacetonitrile, 5-methyl-2-[(1-methylethyl)amino]-alpha-2(1H)-pyridinylidene-], the IC50 is 310 nM.

With `Cc1cnc(N[C@H]2CCCC[C@@H]2O)nc1/C(C#N)=C1/C=CC=CN1` [Example 22, 4-pyrimidineacetonitrile, 2-[[(1S,2S)-2-hydroxycyclohexyl]amino]-5-methyl-alpha-2(1H)-pyridinylidene-], the IC50 was 740 nM.

`Cc1cnc(Cl)nc1/C(C#N)=C1/C=CC=CN1` [Intermediate 5, 4-pyrimidineacetonitrile, 2-chloro-5-methyl-alpha-2(1H)-pyridinylidene-]: the IC50 came to 2350 nM.

The target of a further assay is human GSK3 beta (Homo sapiens, UniProt P49841). The experiment in a line: GSK3β in vitro assay (33P phosphorylation of phospho GS2 peptide). It counts as biochemical. Particulars: in vitro potency on human GSK3 beta; read-out: IC50 (μM) GSK3beta. The method, then: GSK3β Assay (see Bioorg. Med. Chem. Lett by Naerum et al. 12 p. 1525-1528 (2002))
Chain of human GSK3 beta (P49841 whole entry): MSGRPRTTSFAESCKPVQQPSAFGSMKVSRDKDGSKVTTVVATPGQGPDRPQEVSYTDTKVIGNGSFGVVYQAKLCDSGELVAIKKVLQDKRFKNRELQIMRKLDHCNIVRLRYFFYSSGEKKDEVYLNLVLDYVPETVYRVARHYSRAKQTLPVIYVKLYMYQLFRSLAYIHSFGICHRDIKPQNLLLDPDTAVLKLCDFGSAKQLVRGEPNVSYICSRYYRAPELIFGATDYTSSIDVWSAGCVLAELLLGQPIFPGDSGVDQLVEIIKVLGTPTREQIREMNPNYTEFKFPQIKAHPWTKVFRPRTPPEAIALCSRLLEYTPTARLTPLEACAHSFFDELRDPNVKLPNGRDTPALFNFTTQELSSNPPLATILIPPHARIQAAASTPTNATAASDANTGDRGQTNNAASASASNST
In a final reaction volume of 25 μl, GSK3β (h) (5-10 mU) is incubated with 8 mM MOPS pH 7.0, 0.2 mM EDTA, 20 μM […](p)EDEEE (being the GSK3 substrate; a phospho GS2 peptide), 10 mM Mg Acetate and [γ-^33P-ATP] (Specific activity approx. 500 cpm/pmol, concentration as required). The reaction is initiated by the addition of Mg^2+ [γ-^33P-ATP]. After incubation for 40 minutes at room temperature, the reaction is stopped by the addition of 5 μl of a 3% phosphoric acid solution. 10 μl of the reaction is then spotted onto a P30 filtermat and washed three times for 5 minutes in 50 mM phosphoric acid and once in methanol prior to drying and the degree of phosphorylation of the substrate is determined by scintillation counting.
With `Cc1cnc(NCCc2cccnc2)nc1/C(C#N)=C1/C=CC=CN1` [Example 3, 4-pyrimidineacetonitrile, 5-methyl-2-[[2-(3-pyridinyl)ethyl]amino]-alpha-2(1H)-pyridinylidene-], the 50% inhibitory concentration (IC50) was determined as 0.5 µM.

As to `Cc1cnc(NC2CC2)nc1/C(C#N)=C1/C=CC=CN1` [Example 15, 4-pyrimidineacetonitrile, 2-(cyclopropylamino)-5-methyl-alpha-2-pyridinyl-], the IC50 stood at 0.2 µM.

`CCCC(C)Nc1ncc(C)c(/C(C#N)=C2/C=CC=CN2)n1` (stereo not drawn) [Example 25, 4-pyrimidineacetonitrile, 5-methyl-2-[(1-methylbutyl)amino]-alpha-2-pyridinyl-]: the concentration for half-maximal inhibition (IC50) came out at 0.17 µM.

Take `N#CC(=C1C=CNC=C1)c1ccnc(NCCc2cccnc2)n1` [Example 34, 4-pyrimidineacetonitrile, alpha-4-pyridinyl-2-[[2-(3-pyridinyl)ethyl]amino]-]: the IC50 came to 1.5 µM.

For the molecule `CNc1nc(NCCc2cccnc2)nc(/C(C#N)=C2/C=CC=CN2)n1` [Example 49, 1,3,5-triazine-2-acetonitrile, 4-(methylamino)-alpha-2-pyridinyl-6-[[2-(3-pyridinyl)ethyl]amino]-], the IC50 came out at 7.7 µM.

The record behind these values is patent publication US7855212B2, “Pyridinyl acetonitriles” (Merck Serono SA, priority 2003, dated 2010).
